Key:
[1] = Ratio of drug level in brain to plasma in mouse at 5 mg/kg, iv after 4 hrs; format: ADME, organism-based; design: dose 5 mg/kg, route intravenous; conditions: read-out: BPR
[2] = Permeability from basolateral to apical side of the Caco-2 cell membrane; format: ADME, cell-based; conditions: human, read-out: permeability
[3] = Drug level in rat brain at 5 mg/kg, iv after 1 hr; format: ADME, organism-based; design: dose 5 mg/kg, route intravenous; conditions: read-out: Drug uptake
[4] = Plasma clearance in mouse at 5 mg/kg, iv; format: ADME, organism-based; design: dose 5 mg/kg, route intravenous
[5] = Volume of distribution in mouse at 5 mg/kg, iv; format: ADME, organism-based; design: dose 5 mg/kg, route intravenous; conditions: in vivo
[6] = Half life in mouse at 5 mg/kg, iv; format: ADME, organism-based; design: dose 5 mg/kg, route intravenous; conditions: in vivo
[7] = AUC in mouse at 5 mg/kg, iv; format: ADME, organism-based; design: dose 5 mg/kg, route intravenous; conditions: plasma
[8] = Drug level in mouse brain at 5 mg/kg, iv after 1 hr; format: ADME, organism-based; design: dose 5 mg/kg, route intravenous; conditions: read-out: Drug uptake
[9] = Drug level in mouse brain at 5 mg/kg, iv after 4 hrs; format: ADME, organism-based; design: dose 5 mg/kg, route intravenous; conditions: read-out: Drug uptake
[10] = Ratio of drug level in brain to plasma in rat at 5 mg/kg, iv after 1 hr; format: ADME, organism-based; design: dose 5 mg/kg, route intravenous; conditions: read-out: BPR
[11] = Cmax in mouse at 10 mg/kg, po after 2 hrs; format: ADME, organism-based; design: dose 10 mg/kg, route oral; conditions: in vivo
[12] = Tmax in mouse at 10 mg/kg, po; format: ADME, organism-based; design: dose 10 mg/kg, route oral; conditions: in vivo
[13] = AUC in mouse at 10 mg/kg, po; format: ADME, organism-based; design: dose 10 mg/kg, route oral; conditions: plasma
[14] = Oral bioavailability in mouse at 10 mg/kg, po; format: ADME, organism-based; conditions: in vivo
[15] = Lipophilicity, log D by shake-flask method; format: physicochemical; conditions: octanol/water
[16] = Ratio of drug level in brain to plasma in mouse at 5 mg/kg, iv after 1 hr; format: ADME, organism-based; design: dose 5 mg/kg, route intravenous; conditions: read-out: BPR
[17] = Apparent permeability across Caco-2 cells; format: ADME, cell-based; conditions: human

Row | Compound | Kp at 4 h [1] | Papp B→A [2] [×10⁻⁶ cm/s] | concentration at 1 h [3] [ng/g] | clearance [4] [mL/min/kg] | Vd [5] [L/kg] | half-life [6] [h] | AUC [7] [ng·h/mL] | concentration at 1 h [8] [ng/g] | concentration at 4 h [9] [ng/g] | Kp at 1 h [10] | Cmax [11] [ng/mL] | Tmax [12] [h] | AUC [13] [ng·h/mL] | bioavailability [14] [%] | logD [15] | Kp at 1 h [16] | Papp [17] [×10⁻⁶ cm/s]
1 | CC(C)C[C@H](NCCN)c1cc(F)ccc1N1CCN(C(=O)[C@@H](Cc2ccc(Cl)cc2Cl)N2CCCC2=O)CC1 | 0.23 |  |  |  |  |  |  |  |  |  |  |  |  |  |  |  | 
2 | CC(C)C[C@H](NCCN)c1cccc(F)c1N1CCN(C(=O)[C@@H](Cc2ccc(Cl)cc2Cl)N2CCCC2=O)CC1 |  | 6.7 | 81 | 15 | 13 | 10 | 9980 | 63 | 53 | 0.47 | 552 | 2 | 1950 | 19.5 | 1.8 | 0.14 | 2
